The values below are quoted from earlier work in patent US11439617B2, “Polymeric compositions of monomethyl fumarate and their use in treating relapsing remitting multiple sclerosis and psoriasis” (priority 2017, dated 2022).

Where a name gives a salt, the structure may show the parent alone.

The conditions of the series: in vivo.

As for `COC(=O)/C=C/C(=O)O` [MMF, monomethyl fumarate], the Tmax entry is “about 2.5 hours” and the half-life in circulation was 36 h.
